Results reported in patent US10695427B2, “Shape memory particles for biomedical uses” (The Johns Hopkins University, priority 2015, dated 2020).

Experiments:
MDA-MB-231 cells [1] = experiment: Paclitaxel/digoxin treatment of TNBC orthografts (tumor volume, Aldefluor assay, RT-qPCR); type: in vivo, mice; conditions: tumors harvested on day 12; for percentage of ALDH+ cells (Aldefluor assay): compared with saline treatment
Description: MDA-MB-231 cells were implanted into the mammary fat pad of female severe combined immunodeficiency (Scid) mice. Mice were randomized to four groups, which were treated with: saline (control, C); digoxin (D); paclitaxel (P); or paclitaxel and digoxin (P/D). […] Tumors were harvested on day 12 for Aldefluor assay to determine the percentage of aldehyde dehydrogenase-expressing (ALDH^+) BCSCs (FIG. 17B) and RT-qPCR assays to quantify the expression of mRNAs encoding interleukin (IL) 8, IL-6, and the multidrug drug resistance protein MDR1 (FIG. 17C).

MDA-MB-231 cells [2] = experiment: Gemcitabine/digoxin combination therapy, tumor relapse; type: in vivo, mice
Description: MDA-MB-231 cells were implanted into the mammary fat pad of female Scid mice. When a tumor was palpable (day 1), the mice were randomized to three groups, which were treated with intraperitoneal injections of: saline, gemcitabine [20 mg/kg on days 5, 10, 15, 20, and 25 (arrows)], or gemcitabine and digoxin (2 mg/kg on days 1-25). Tumor volumes were determined every 2-3 d and mean±SEM (n=3) are shown.
To examine the effect of HIF inhibition on tumor relapse, MDA-MB-231 cells were implanted into the mammary fat pad of Scid mice. When the tumor became palpable, the mice were randomized to receive intraperitoneal injections of saline, gemcitabine (20 mg/kg on days 5, 10, 15, 20, and 25), or the combination of digoxin (2 mg/kg on days 1-25) and gemcitabine.

## CC(=O)O[C@H]1C(=O)[C@@]2(C)[C@H]([C@H](OC(=O)c3ccccc3)[C@]3(O)C[C@H](OC(=O)[C@H](O)[C@@H](NC(=O)c4ccccc4)c4ccccc4)C(C)=C1C3(C)C)[C@]1(OC(C)=O)CO[C@@H]1C[C@@H]2O [paclitaxel]
MDA-MB-231 cells [1]; RT-qPCR
  expression of IL-6, IL-8, and MDR1 mRNA: increased
MDA-MB-231 cells [1]
  percentage of ALDH+ cells (Aldefluor assay): significantly increased

## C[C@H]1O[C@@H](O[C@H]2[C@@H](O)C[C@H](O[C@H]3[C@@H](O)C[C@H](O[C@H]4CC[C@@]5(C)[C@H](CC[C@@H]6[C@@H]5C[C@@H](O)[C@]5(C)[C@@H](C7=CC(=O)OC7)CC[C@]65O)C4)O[C@@H]3C)O[C@@H]2C)C[C@H](O)[C@@H]1O [digoxin]
MDA-MB-231 cells [1]
  percentage of ALDH+ cells (Aldefluor assay): significantly decreased

## Nc1ccn([C@@H]2O[C@H](CO)[C@@H](O)C2(F)F)c(=O)n1 [gemcitabine]
MDA-MB-231 cells [2]; intraperitoneal, gemcitabine 20 mg/kg days 5, 10, 15, 20, 25, digoxin 2 mg/kg days 1-25, Scid mice
  tumor growth during treatment: markedly reduced tumor growth
MDA-MB-231 cells [2]; up to day 32, 7 days after treatment was discontinued
  tumor growth after treatment was discontinued (relapse): rapid tumor growth resumed
